Test results as given in the NIST ThermoML archive (doi:10.1021/je401120a).
Numbers after ± are expanded uncertainties.

Test: xn = mol fraction of the nth substance listed
Details: 101 kPa, Liquid; for electrical conductivity: Crison conductimeter (model GLP31); for speed of sound: Pulse-echo method; for mass density: Vibrating tube method

For `CCC[n+]1ccccc1.F[B-](F)(F)F` [1-propylpyridinium tetrafluoroborate] + CO, the electrical conductivity (293.15 K, x1 = 0.0313) was 2.58 ± 0.05 S/m, the electrical conductivity (293.15 K, x1 = 0.0365) was 2.84 ± 0.06 S/m and the electrical conductivity (293.15 K, x1 = 0.0422) was 3.07 ± 0.06 S/m. For the same compound, the electrical conductivity (293.15 K, x1 = 0.0658) was 3.66 ± 0.07 S/m, the electrical conductivity (293.15 K, x1 = 0.0775) was 3.86 ± 0.08 S/m and the electrical conductivity (293.15 K, x1 = 0.0894) was 4.05 ± 0.08 S/m. The electrical conductivity (293.15 K, x1 = 0.1294) was 4.37 ± 0.09 S/m, the electrical conductivity (293.15 K, x1 = 0.1409) was 4.4 ± 0.09 S/m and the electrical conductivity (293.15 K, x1 = 0.1703) was 4.48 ± 0.09 S/m. For the same compound, the electrical conductivity (293.15 K, x1 = 0.2002) was 4.41 ± 0.09 S/m, the electrical conductivity (293.15 K, x1 = 0.2456) was 4.22 ± 0.08 S/m and the electrical conductivity (293.15 K, x1 = 0.2819) was 3.93 ± 0.08 S/m. For the same compound, the electrical conductivity (293.15 K, x1 = 0.3507) was 3.46 ± 0.07 S/m, the electrical conductivity (293.15 K, x1 = 0.3937) was 3.13 ± 0.06 S/m and the electrical conductivity (293.15 K, x1 = 0.4334) was 2.77 ± 0.06 S/m. The electrical conductivity (293.15 K, x1 = 0.464) was 2.55 ± 0.05 S/m, the electrical conductivity (293.15 K, x1 = 0.5398) was 1.98 ± 0.04 S/m and the electrical conductivity (293.15 K, x1 = 0.635) was 1.46 ± 0.029 S/m. The electrical conductivity (293.15 K, x1 = 0.7918) was 0.639 ± 0.013 S/m, the electrical conductivity (293.15 K, x1 = 0.894) was 0.422 ± 0.008 S/m and the electrical conductivity (293.15 K, x1 = 0.9384) was 0.355 ± 0.007 S/m. The electrical conductivity (293.15 K, x1 = 1) was 0.302 ± 0.006 S/m, the speed of sound (293.15 K, x1 = 0.028) was 1164.9 ± 1.2 m/s and the speed of sound (293.15 K, x1 = 0.0577) was 1208.5 ± 1.2 m/s. The speed of sound (293.15 K, x1 = 0.0967) was 1257.2 ± 1.2 m/s, the speed of sound (293.15 K, x1 = 0.1459) was 1311.1 ± 1.3 m/s and the speed of sound (293.15 K, x1 = 0.1952) was 1362.9 ± 1.3 m/s. The speed of sound (293.15 K, x1 = 0.3213) was 1458 ± 1.4 m/s, the speed of sound (293.15 K, x1 = 0.4002) was 1496.5 ± 1.5 m/s and the speed of sound (293.15 K, x1 = 0.4965) was 1541.5 ± 1.6 m/s. The speed of sound (293.15 K, x1 = 0.5988) was 1575.7 ± 1.8 m/s, the speed of sound (293.15 K, x1 = 0.6904) was 1598.4 ± 1.9 m/s and the speed of sound (293.15 K, x1 = 0.8011) was 1621.5 ± 2 m/s. The speed of sound (293.15 K, x1 = 0.8824) was 1637.1 ± 2.2 m/s, the speed of sound (293.15 K, x1 = 0.94) was 1646.4 ± 2.3 m/s and the speed of sound (293.15 K, x1 = 1) was 1653.9 ± 2.4 m/s. The mass density (293.15 K, x1 = 0.028) was 846.441 ± 0.38 kg/m3, the mass density (293.15 K, x1 = 0.0577) was 893.625 ± 0.31 kg/m3 and the mass density (293.15 K, x1 = 0.0967) was 944.389 ± 0.26 kg/m3. It also gave a mass density (293.15 K, x1 = 0.1459) of 995.788 ± 0.22 kg/m3, a mass density (293.15 K, x1 = 0.1952) of 1036.49 ± 0.19 kg/m3 and a mass density (293.15 K, x1 = 0.3213) of 1110.62 ± 0.25 kg/m3. The mass density (293.15 K, x1 = 0.4002) was 1143.05 ± 0.31 kg/m3, the mass density (293.15 K, x1 = 0.4965) was 1173.27 ± 0.43 kg/m3 and the mass density (293.15 K, x1 = 0.5988) was 1198.33 ± 0.58 kg/m3. For the same compound, the mass density (293.15 K, x1 = 0.6904) was 1216.19 ± 0.73 kg/m3, the mass density (293.15 K, x1 = 0.8011) was 1233.62 ± 0.94 kg/m3 and the mass density (293.15 K, x1 = 0.8824) was 1244.23 ± 1.1 kg/m3. For the same compound, the mass density (293.15 K, x1 = 0.94) was 1250.69 ± 1.3 kg/m3, the mass density (293.15 K, x1 = 1) was 1256.67 ± 1.4 kg/m3 and the viscosity (293.15 K, x1 = 0.0505) was 1.267 ± 0.031 mPa·s. For the same compound, the viscosity (293.15 K, x1 = 0.0993) was 2.52 ± 0.058 mPa·s, the viscosity (293.15 K, x1 = 0.191) was 5.73 ± 0.12 mPa·s and the viscosity (293.15 K, x1 = 0.291) was 9.737 ± 0.2 mPa·s. For the same compound, the viscosity (293.15 K, x1 = 0.3918) was 14.39 ± 0.28 mPa·s, the viscosity (293.15 K, x1 = 0.4929) was 20.26 ± 0.39 mPa·s and the viscosity (293.15 K, x1 = 0.6117) was 29.28 ± 0.56 mPa·s. The viscosity (293.15 K, x1 = 0.7331) was 46.22 ± 0.9 mPa·s, the viscosity (293.15 K, x1 = 0.7923) was 61.38 ± 1.1 mPa·s and the viscosity (293.15 K, x1 = 0.8425) was 77.91 ± 2.5 mPa·s. For the same compound, the viscosity (293.15 K, x1 = 0.8956) was 99.92 ± 4.8 mPa·s, the viscosity (293.15 K, x1 = 0.9447) was 125.55 ± 8 mPa·s and the viscosity (293.15 K, x1 = 1) was 160 ± 13 mPa·s. It also gave an electrical conductivity (303.15 K, x1 = 0.0313) of 2.99 ± 0.06 S/m, an electrical conductivity (303.15 K, x1 = 0.0365) of 3.28 ± 0.07 S/m and an electrical conductivity (303.15 K, x1 = 0.0422) of 3.59 ± 0.07 S/m. The electrical conductivity (303.15 K, x1 = 0.0658) was 4.29 ± 0.09 S/m, the electrical conductivity (303.15 K, x1 = 0.0775) was 4.56 ± 0.09 S/m and the electrical conductivity (303.15 K, x1 = 0.0894) was 4.84 ± 0.1 S/m. The electrical conductivity (303.15 K, x1 = 0.1294) was 5.15 ± 0.1 S/m, the electrical conductivity (303.15 K, x1 = 0.1409) was 5.25 ± 0.11 S/m and the electrical conductivity (303.15 K, x1 = 0.1703) was 5.38 ± 0.11 S/m. For the same compound, the electrical conductivity (303.15 K, x1 = 0.2002) was 5.35 ± 0.11 S/m, the electrical conductivity (303.15 K, x1 = 0.2456) was 5.16 ± 0.1 S/m and the electrical conductivity (303.15 K, x1 = 0.2819) was 4.8 ± 0.1 S/m. It also gave an electrical conductivity (303.15 K, x1 = 0.3507) of 4.31 ± 0.09 S/m, an electrical conductivity (303.15 K, x1 = 0.3937) of 3.94 ± 0.08 S/m and an electrical conductivity (303.15 K, x1 = 0.4334) of 3.52 ± 0.07 S/m. For the same compound, the electrical conductivity (303.15 K, x1 = 0.464) was 3.16 ± 0.06 S/m, the electrical conductivity (303.15 K, x1 = 0.5398) was 2.59 ± 0.05 S/m and the electrical conductivity (303.15 K, x1 = 0.635) was 2.01 ± 0.04 S/m. It also gave an electrical conductivity (303.15 K, x1 = 0.7918) of 1.04 ± 0.021 S/m, an electrical conductivity (303.15 K, x1 = 0.894) of 0.702 ± 0.014 S/m and an electrical conductivity (303.15 K, x1 = 0.9384) of 0.625 ± 0.013 S/m. It also gave an electrical conductivity (303.15 K, x1 = 1) of 0.516 ± 0.01 S/m, a speed of sound (303.15 K, x1 = 0.028) of 1134.5 ± 1.2 m/s and a speed of sound (303.15 K, x1 = 0.0577) of 1179.8 ± 1.2 m/s. The speed of sound (303.15 K, x1 = 0.0967) was 1230.9 ± 1.2 m/s, the speed of sound (303.15 K, x1 = 0.1459) was 1286.2 ± 1.3 m/s and the speed of sound (303.15 K, x1 = 0.1952) was 1339.4 ± 1.3 m/s. For the same compound, the speed of sound (303.15 K, x1 = 0.3213) was 1433.2 ± 1.4 m/s, the speed of sound (303.15 K, x1 = 0.4002) was 1477.2 ± 1.5 m/s and the speed of sound (303.15 K, x1 = 0.4965) was 1516.7 ± 1.6 m/s. The speed of sound (303.15 K, x1 = 0.5988) was 1550.9 ± 1.8 m/s, the speed of sound (303.15 K, x1 = 0.6904) was 1574 ± 1.9 m/s and the speed of sound (303.15 K, x1 = 0.8011) was 1597.3 ± 2 m/s. The speed of sound (303.15 K, x1 = 0.8824) was 1612.7 ± 2.2 m/s, the speed of sound (303.15 K, x1 = 0.94) was 1622.4 ± 2.3 m/s and the speed of sound (303.15 K, x1 = 1) was 1629.8 ± 2.4 m/s. The mass density (303.15 K, x1 = 0.028) was 837.96 ± 0.38 kg/m3, the mass density (303.15 K, x1 = 0.0577) was 885.479 ± 0.31 kg/m3 and the mass density (303.15 K, x1 = 0.0967) was 936.347 ± 0.26 kg/m3. For the same compound, the mass density (303.15 K, x1 = 0.1459) was 987.6 ± 0.22 kg/m3, the mass density (303.15 K, x1 = 0.1952) was 1028.35 ± 0.19 kg/m3 and the mass density (303.15 K, x1 = 0.3213) was 1102.55 ± 0.24 kg/m3. The mass density (303.15 K, x1 = 0.4002) was 1135.04 ± 0.31 kg/m3, the mass density (303.15 K, x1 = 0.4965) was 1165.53 ± 0.42 kg/m3 and the mass density (303.15 K, x1 = 0.5988) was 1190.7 ± 0.57 kg/m3. The mass density (303.15 K, x1 = 0.6904) was 1208.71 ± 0.72 kg/m3, the mass density (303.15 K, x1 = 0.8011) was 1226.21 ± 0.93 kg/m3 and the mass density (303.15 K, x1 = 0.8824) was 1236.99 ± 1.1 kg/m3. The mass density (303.15 K, x1 = 0.94) was 1243.5 ± 1.2 kg/m3, the mass density (303.15 K, x1 = 1) was 1249.54 ± 1.4 kg/m3 and the viscosity (303.15 K, x1 = 0.0505) was 0.9388 ± 0.024 mPa·s. It also gave a viscosity (303.15 K, x1 = 0.0993) of 1.76 ± 0.042 mPa·s, a viscosity (303.15 K, x1 = 0.191) of 3.674 ± 0.083 mPa·s and a viscosity (303.15 K, x1 = 0.291) of 6.277 ± 0.14 mPa·s. For the same compound, the viscosity (303.15 K, x1 = 0.3918) was 8.954 ± 0.18 mPa·s, the viscosity (303.15 K, x1 = 0.4929) was 12.66 ± 0.25 mPa·s and the viscosity (303.15 K, x1 = 0.6117) was 18.63 ± 0.37 mPa·s. The viscosity (303.15 K, x1 = 0.7331) was 29.44 ± 0.58 mPa·s, the viscosity (303.15 K, x1 = 0.7923) was 38 ± 0.75 mPa·s and the viscosity (303.15 K, x1 = 0.8425) was 47.82 ± 0.95 mPa·s. It also gave a viscosity (303.15 K, x1 = 0.8956) of 59.95 ± 1.1 mPa·s, a viscosity (303.15 K, x1 = 0.9447) of 73.49 ± 2.1 mPa·s and a viscosity (303.15 K, x1 = 1) of 90.75 ± 3.8 mPa·s.
